Data taken from ChEMBL document CHEMBL1201862, “PubChem BioAssay data set” (2004).
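Tested at 5 concentrations; 48 h exposure; 96-well plates; endpoints linearly interpolated, else capped at highest concentration. Here, GI50 denotes the concentration required for 50% inhibition of growth.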 Active and inactive are the calls of the source. Cut-off read from the data, not from the text of the source: active = GI50 up to about 1.1 µM and inactive = higher.

Key:
Experiment in all cases: growth of human tumour cells (NCI), 48 h
OVCAR-4 = system: OVCAR-4
OVCAR-8 = system: OVCAR-8
UACC-257 = system: UACC-257
NCI-H522 = system: NCI-H522
TK-10 = system: TK-10
MDA-MB-435 = system: MDA-MB-435
MOLT-4 = system: MOLT-4
SK-MEL-5 = system: SK-MEL-5
IGROV-1 = system: IGROV-1
COLO 205 = system: COLO 205
CCRF-CEM = system: CCRF-CEM
A549 = system: A549
SK-MEL-2 = system: SK-MEL-2
HOP-92 = system: HOP-92
SK-MEL-28 = system: SK-MEL-28
SW-620 = system: SW-620
NCI/ADR-RES = system: NCI/ADR-RES
NCI-H226 = system: NCI-H226
SNB-19 = system: SNB-19
SN12C = system: SN12C
HT-29 = system: HT-29
MDA-MB-231 = system: MDA-MB-231
OVCAR-5 = system: OVCAR-5
Malme-3M = system: Malme-3M
HCT-116 = system: HCT-116
U-251 = system: U-251
EKVX = system: EKVX
DU-145 = system: DU-145
SNB-75 = system: SNB-75
HL-60 = system: HL-60
OVCAR-3 = system: OVCAR-3
SF-268 = system: SF-268
RXF 393 = system: RXF 393
NCI-H23 = system: NCI-H23
ACHN = system: ACHN
K562 = system: K562
SK-OV-3 = system: SK-OV-3
CAKI-1 = system: CAKI-1
T47D = system: T47D
SF-539 = system: SF-539
LOX IMVI = system: LOX IMVI
MDA-N = system: MDA-N
UO-31 = system: UO-31
Hs-578T = system: Hs-578T
KM12 = system: KM12
BT-549 = system: BT-549
SF-295 = system: SF-295
M14 = system: M14
786-0 = system: 786-0
UACC-62 = system: UACC-62
HOP-62 = system: HOP-62
HCT-15 = system: HCT-15
PC-3 = system: PC-3
NCI-H460 = system: NCI-H460
A498 = system: A498
MCF7 = system: MCF7
SR = system: SR
RPMI-8226 = system: RPMI-8226
HCC 2998 = system: HCC 2998

## O=S(=O)(N/C(=N\O)Nc1ccc(Cl)cc1)c1cc2ccccc2o1
OVCAR-4
  GI50: 17.9 µM (inactive)
OVCAR-8
  GI50: 18.1 µM (inactive)
UACC-257
  GI50: 19.5 µM (inactive)
NCI-H522
  GI50: 12.2 µM (inactive)
TK-10
  GI50: 28.8 µM (inactive)
MDA-MB-435
  GI50: 12.2 µM (inactive)
MOLT-4
  GI50: 22.6 µM (inactive)
SK-MEL-5
  GI50: 15.3 µM (inactive)
IGROV-1
  GI50: 12.6 µM (inactive)
COLO 205
  GI50: 22.6 µM (inactive)
CCRF-CEM
  GI50: 22.1 µM (inactive)
A549
  GI50: 26.1 µM (inactive)
SK-MEL-2
  GI50: 16.6 µM (inactive)
HOP-92
  GI50: 13.3 µM (inactive)
SK-MEL-28
  GI50: 17.9 µM (inactive)
SW-620
  GI50: 23.1 µM (inactive)
NCI/ADR-RES
  GI50: 19.8 µM (inactive)
NCI-H226
  GI50: 33.4 µM (inactive)
SNB-19
  GI50: 34.5 µM (inactive)
SN12C
  GI50: 18.1 µM (inactive)
HT-29
  GI50: 22.9 µM (inactive)
MDA-MB-231
  GI50: 18 µM (inactive)
OVCAR-5
  GI50: 23.6 µM (inactive)
Malme-3M
  GI50: 19.9 µM (inactive)
HCT-116
  GI50: 11.4 µM (inactive)
U-251
  GI50: 17.7 µM (inactive)
EKVX
  GI50: 18.6 µM (inactive)
DU-145
  GI50: 47.2 µM (inactive)
SNB-75
  GI50: 38.1 µM (inactive)
HL-60
  GI50: 15.3 µM (inactive)
OVCAR-3
  GI50: 13.1 µM (inactive)
SF-268
  GI50: 18.3 µM (inactive)
RXF 393
  GI50: 34.8 µM (inactive)
NCI-H23
  GI50: 18 µM (inactive)
ACHN
  GI50: 19.5 µM (inactive)
K562
  GI50: 11.1 µM (inactive)
SK-OV-3
  GI50: 19.3 µM (inactive)
CAKI-1
  GI50: 10.6 µM (inactive)
T47D
  GI50: > 100 µM (inactive)
SF-539
  GI50: 33.9 µM (inactive)
LOX IMVI
  GI50: 11.5 µM (inactive)
MDA-N
  GI50: 38.8 µM (inactive)
UO-31
  GI50: 46.7 µM (inactive)
Hs-578T
  GI50: 20.4 µM (inactive)
KM12
  GI50: 13.2 µM (inactive)
BT-549
  GI50: 17.9 µM (inactive)
SF-295
  GI50: 14.9 µM (inactive)
M14
  GI50: 21.2 µM (inactive)
786-0
  GI50: 20.7 µM (inactive)
UACC-62
  GI50: 10.9 µM (inactive)
HOP-62
  GI50: 23.6 µM (inactive)
HCT-15
  GI50: 14.7 µM
PC-3
  GI50: 25.4 µM (inactive)
NCI-H460
  GI50: 38.7 µM (inactive)

## Cc1c(F)c(N)c2c(=O)cc(-c3ccc(NC(=O)[C@@H](N)CCCCN)c(F)c3)oc2c1F
OVCAR-8
  GI50: 13.7 µM (inactive)
UACC-257
  GI50: 0.209 µM (active)
TK-10
  GI50: 0.239 µM (active)
MDA-MB-435
  GI50: 8.65 µM (inactive)
IGROV-1
  GI50: 0.0532 µM (active)
CCRF-CEM
  GI50: 5.07 µM (inactive)
SK-MEL-2
  GI50: 17.5 µM (inactive)
HOP-92
  GI50: 26.7 µM (inactive)
SK-MEL-28
  GI50: 18.5 µM (inactive)
NCI/ADR-RES
  GI50: 20.4 µM (inactive)
SNB-19
  GI50: 27 µM (inactive)
SN12C
  GI50: 14.9 µM (inactive)
HT-29
  GI50: 14.3 µM (inactive)
MDA-MB-231
  GI50: 16.3 µM (inactive)
HCT-116
  GI50: 5.16 µM (inactive)
A498
  GI50: 0.057 µM (active)
EKVX
  GI50: 11 µM (inactive)
DU-145
  GI50: 14.5 µM (inactive)
SF-268
  GI50: 12.8 µM (inactive)
RXF 393
  GI50: 16.1 µM (inactive)
ACHN
  GI50: 16.2 µM (inactive)
MCF7
  GI50: 0.0399 µM (active)
SK-OV-3
  GI50: 15.3 µM (inactive)
T47D
  GI50: 0.0942 µM (active)
LOX IMVI
  GI50: 16.3 µM (inactive)
MDA-N
  GI50: 12.5 µM (inactive)
UO-31
  GI50: 14.8 µM (inactive)
KM12
  GI50: 8.95 µM (inactive)
BT-549
  GI50: 23.6 µM (inactive)
SF-295
  GI50: 13.2 µM (inactive)
M14
  GI50: 20.7 µM (inactive)
786-0
  GI50: 7.48 µM (inactive)
HOP-62
  GI50: 12.3 µM (inactive)
HCT-15
  GI50: 14 µM
PC-3
  GI50: 16.6 µM (inactive)
NCI-H460
  GI50: 0.132 µM (active)

## CSc1nc(NCc2ccccc2)c2cnn(COCCO)c2n1
OVCAR-4
  GI50: 29.4 µM (inactive)
OVCAR-8
  GI50: 42.7 µM (inactive)
UACC-257
  GI50: 20.3 µM (inactive)
NCI-H522
  GI50: 28.6 µM (inactive)
TK-10
  GI50: 61.9 µM (inactive)
SR
  GI50: 69.7 µM (inactive)
MDA-MB-435
  GI50: 27.4 µM (inactive)
MOLT-4
  GI50: 26.3 µM (inactive)
SK-MEL-5
  GI50: 41.5 µM (inactive)
IGROV-1
  GI50: 40.7 µM (inactive)
COLO 205
  GI50: 29.9 µM (inactive)
CCRF-CEM
  GI50: 51.6 µM (inactive)
A549
  GI50: 43.9 µM (inactive)
SK-MEL-2
  GI50: 43.7 µM (inactive)
HOP-92
  GI50: 18.2 µM (inactive)
SW-620
  GI50: > 100 µM (inactive)
NCI/ADR-RES
  GI50: 53 µM (inactive)
NCI-H226
  GI50: 55.5 µM (inactive)
SN12C
  GI50: 75 µM (inactive)
HT-29
  GI50: 37.8 µM (inactive)
MDA-MB-231
  GI50: 55.6 µM (inactive)
OVCAR-5
  GI50: > 100 µM (inactive)
Malme-3M
  GI50: 42.9 µM (inactive)
HCT-116
  GI50: 62.8 µM (inactive)
U-251
  GI50: 44.5 µM (inactive)
EKVX
  GI50: 21.4 µM (inactive)
DU-145
  GI50: 64.3 µM (inactive)
SNB-75
  GI50: 0.152 µM (active)
HL-60
  GI50: 42.7 µM (inactive)
OVCAR-3
  GI50: 57.8 µM (inactive)
SF-268
  GI50: 43.8 µM (inactive)
RXF 393
  GI50: 29 µM (inactive)
NCI-H23
  GI50: 24.5 µM (inactive)
ACHN
  GI50: 31.9 µM (inactive)
MCF7
  GI50: 45.3 µM (inactive)
RPMI-8226
  GI50: 38.5 µM (inactive)
K562
  GI50: 40.1 µM (inactive)
SK-OV-3
  GI50: > 100 µM (inactive)
CAKI-1
  GI50: 61.9 µM (inactive)
T47D
  GI50: 53.7 µM (inactive)
SF-539
  GI50: > 100 µM (inactive)
LOX IMVI
  GI50: 38.6 µM (inactive)
MDA-N
  GI50: 46.9 µM (inactive)
UO-31
  GI50: 35.9 µM (inactive)
KM12
  GI50: 80 µM (inactive)
BT-549
  GI50: 35.7 µM (inactive)
SF-295
  GI50: 35.5 µM (inactive)
M14
  GI50: 67.8 µM (inactive)
786-0
  GI50: > 100 µM (inactive)
UACC-62
  GI50: 43.9 µM (inactive)
HOP-62
  GI50: > 100 µM (inactive)
PC-3
  GI50: 58.1 µM (inactive)
NCI-H460
  GI50: 39.3 µM (inactive)

## O=S(=O)(O)Nc1ccc(-c2nc3ccccc3s2)cc1Cl
OVCAR-4
  GI50: > 100 µM (inactive)
OVCAR-8
  GI50: > 100 µM (inactive)
UACC-257
  GI50: > 100 µM (inactive)
NCI-H522
  GI50: > 100 µM (inactive)
TK-10
  GI50: 8.09 µM (inactive)
SR
  GI50: > 100 µM (inactive)
MDA-MB-435
  GI50: > 100 µM (inactive)
SK-MEL-5
  GI50: > 100 µM (inactive)
IGROV-1
  GI50: 1.67 µM (inactive)
COLO 205
  GI50: > 100 µM (inactive)
CCRF-CEM
  GI50: > 100 µM (inactive)
A549
  GI50: > 100 µM (inactive)
SK-MEL-2
  GI50: > 100 µM (inactive)
HOP-92
  GI50: > 100 µM (inactive)
SK-MEL-28
  GI50: > 100 µM (inactive)
SW-620
  GI50: > 100 µM (inactive)
NCI/ADR-RES
  GI50: > 100 µM (inactive)
NCI-H226
  GI50: 14.6 µM (inactive)
SNB-19
  GI50: > 100 µM (inactive)
SN12C
  GI50: > 100 µM (inactive)
HT-29
  GI50: > 100 µM (inactive)
MDA-MB-231
  GI50: > 100 µM (inactive)
OVCAR-5
  GI50: 16.1 µM (inactive)
Malme-3M
  GI50: > 100 µM (inactive)
HCT-116
  GI50: > 100 µM (inactive)
A498
  GI50: > 100 µM (inactive)
U-251
  GI50: > 100 µM (inactive)
EKVX
  GI50: > 100 µM (inactive)
DU-145
  GI50: > 100 µM (inactive)
SNB-75
  GI50: > 100 µM (inactive)
HL-60
  GI50: > 100 µM (inactive)
OVCAR-3
  GI50: > 100 µM (inactive)
RXF 393
  GI50: > 100 µM (inactive)
NCI-H23
  GI50: > 100 µM (inactive)
ACHN
  GI50: > 100 µM (inactive)
HCC 2998
  GI50: > 100 µM (inactive)
RPMI-8226
  GI50: > 100 µM (inactive)
K562
  GI50: > 100 µM (inactive)
SK-OV-3
  GI50: > 100 µM (inactive)
CAKI-1
  GI50: > 100 µM (inactive)
T47D
  GI50: > 100 µM (inactive)
SF-539
  GI50: > 100 µM (inactive)
LOX IMVI
  GI50: > 100 µM (inactive)
MDA-N
  GI50: > 100 µM (inactive)
UO-31
  GI50: > 100 µM (inactive)
Hs-578T
  GI50: > 100 µM (inactive)
KM12
  GI50: > 100 µM (inactive)
BT-549
  GI50: > 100 µM (inactive)
SF-295
  GI50: > 100 µM (inactive)
M14
  GI50: > 100 µM (inactive)
786-0
  GI50: > 100 µM (inactive)
UACC-62
  GI50: > 100 µM (inactive)
HOP-62
  GI50: > 100 µM (inactive)
HCT-15
  GI50: > 100 µM
PC-3
  GI50: > 100 µM (inactive)
NCI-H460
  GI50: > 100 µM (inactive)
